# Results published in ChEMBL document CHEMBL1138480, “Discovery of highly potent and selective biphenylacylsulfonamide-based beta3-adrenergic receptor agonists and evaluation of physical properties as potential overactive bladder therapies: part 5” (J Med Chem, 2009).
# Experiments:
# [1] = Inhibition of KCl-induced tonic contraction in Beagle dog detrusor muscle strips preincubated for 15 mins before KCl challenge; format: functional; details: Canis lupus familiaris
# Canis familiaris [2] = experiment: Inhibition of carbachol-induced increase in intravesical pressure in intraduodenally dosed Beagle dog OAB model for 30 mins measured for 180 mins; format: functional, organism-based; details: Canis lupus familiaris
# [3] = target: Beta-3 adrenergic receptor (Canis lupus familiaris, UniProt O02662); experiment: Agonist activity at dog recombinant beta3 adrenergic receptor expressed in CHO cells assessed as cAMP accumulation by enzyme immunoassay; format: functional, cell-based
# [4] = Protein binding in Beagle dog serum; format: ADME, cell-free, Canis lupus familiaris; details: read-out: PPB (converted)
# Canis familiaris [5] = experiment: Inhibition of carbachol-induced increase in intravesical pressure in Beagle dog OAB model at 10 ug/kg, iv for 30 mins measured for 180 mins; format: functional; details: Canis lupus familiaris
# [6] = Cmax in Beagle dog at 0.10 mg/kg, po by cassette assay; format: ADME, organism-based, Canis lupus familiaris; parameters: dose 0.1 mg/kg, route oral; details: in vivo, 0.1 mg/kg
# [7] = Terminal half life in Beagle dog plasma at 0.10 mg/kg, iv by cassette assay; format: ADME, organism-based, Canis lupus familiaris; parameters: dose 0.1 mg/kg, route intravenous; details: 0.1 mg/kg, read-out: beta t1/2 (converted)
# [8] = Cmax in rat at 0.32 mg/kg, po by cassette assay; format: ADME, organism-based; parameters: dose 0.32 mg/kg, route oral; details: in vivo
# [9] = AUC (0 to 24 hrs) in Beagle dog at 0.10 mg/kg, po by cassette assay; format: ADME, organism-based, Canis lupus familiaris; parameters: time < 24 hr, dose 0.1 mg/kg, route oral; details: plasma, 0.1 mg/kg
# [10] = Bioavailability in Beagle dog at 0.10 mg/kg, po and iv by cassette assay; format: ADME, organism-based, Canis lupus familiaris; details: in vivo, 0.1 mg/kg
# [11] = Total clearance in monkey at 0.32 mg/kg, iv by cassette assay; format: ADME, organism-based, Macaca mulatta; parameters: dose 0.32 mg/kg, route intravenous; details: rhesus monkey, in vivo
# [12] = Bioavailability in monkey at 0.32 mg/kg, po and iv by cassette assay; format: ADME, organism-based, Macaca mulatta; details: rhesus monkey, in vivo
# [13] = AUC (0 to 24 hrs) in rat at 0.32 mg/kg, po by cassette assay; format: ADME, organism-based; parameters: time < 24 hr, dose 0.32 mg/kg, route oral; details: plasma
# [14] = Bioavailability in rat at 0.32 mg/kg, po and iv by cassette assay; format: ADME, organism-based; details: in vivo
# [15] = Terminal half life in rat plasma at 0.32 mg/kg, iv by cassette assay; format: ADME, organism-based; parameters: dose 0.32 mg/kg, route intravenous; details: read-out: beta t1/2 (converted)
# [16] = Total clearance in rat at 0.32 mg/kg, iv by cassette assay; format: ADME, organism-based; parameters: dose 0.32 mg/kg, route intravenous; details: in vivo
# [17] = Total clearance in Beagle dog at 0.10 mg/kg, iv by cassette assay; format: ADME, organism-based, Canis lupus familiaris; parameters: dose 0.1 mg/kg, route intravenous; details: in vivo, 0.1 mg/kg
# [18] = target: Beta-1 adrenergic receptor (Homo sapiens, UniProt P08588)
# Description: Agonist activity at human recombinant beta-1 adrenergic receptor expressed in CHO cells assessed as cAMP accumulation by enzyme immunoassay
# [19] = target: Beta-3 adrenergic receptor (Homo sapiens, UniProt P13945); experiment: Agonist activity at human recombinant beta3 adrenergic receptor expressed in CHO cells assessed as cAMP accumulation by enzyme immunoassay; format: functional, cell-based
# [20] = target: Beta-2 adrenergic receptor (Homo sapiens, UniProt P07550)
# Description: Agonist activity at human recombinant beta2 adrenergic receptor expressed in CHO cells assessed as cAMP accumulation by enzyme immunoassay
# Canis familiaris [21] = experiment: Ratio of Cmax for drug to Cmax for (R)-4'-(2-(2-(3-chlorophenyl)-2-hydroxyethylamino)ethyl)-3-isopropoxybiphenyl-4-carboxylic acid in beagle dog at 0.1 or 0.2 mg/kg, po by cassette assay; format: ADME, organism-based, Canis lupus familiaris; parameters: dose 0.2 mg/kg, route oral; details: in vivo
# Chain of Beta-2 adrenergic receptor (P07550 whole entry): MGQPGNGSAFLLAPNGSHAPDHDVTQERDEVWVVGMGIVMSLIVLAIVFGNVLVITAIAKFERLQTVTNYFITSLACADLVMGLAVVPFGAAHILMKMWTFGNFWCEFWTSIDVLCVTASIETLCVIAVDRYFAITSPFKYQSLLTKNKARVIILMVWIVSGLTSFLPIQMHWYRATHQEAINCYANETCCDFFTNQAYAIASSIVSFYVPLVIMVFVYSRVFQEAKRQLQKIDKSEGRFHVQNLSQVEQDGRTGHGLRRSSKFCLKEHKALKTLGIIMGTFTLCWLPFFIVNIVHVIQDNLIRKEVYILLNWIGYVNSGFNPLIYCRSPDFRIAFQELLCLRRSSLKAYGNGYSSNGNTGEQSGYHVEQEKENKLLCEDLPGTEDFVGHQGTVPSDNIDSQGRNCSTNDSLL
# Chain of Beta-3 adrenergic receptor (Homo sapiens, UniProt P13945) (P13945 whole entry): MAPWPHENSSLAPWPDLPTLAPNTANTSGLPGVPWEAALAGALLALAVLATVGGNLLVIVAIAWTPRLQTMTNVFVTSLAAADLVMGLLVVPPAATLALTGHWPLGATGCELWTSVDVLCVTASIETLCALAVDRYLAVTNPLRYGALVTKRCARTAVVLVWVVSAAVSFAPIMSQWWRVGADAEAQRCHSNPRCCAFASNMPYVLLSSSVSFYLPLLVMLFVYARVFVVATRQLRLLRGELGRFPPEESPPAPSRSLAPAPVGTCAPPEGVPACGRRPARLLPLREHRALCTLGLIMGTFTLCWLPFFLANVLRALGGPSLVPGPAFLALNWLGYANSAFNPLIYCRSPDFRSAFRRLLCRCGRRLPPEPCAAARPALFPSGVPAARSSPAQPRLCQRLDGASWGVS
# Chain of Beta-1 adrenergic receptor (P08588 whole entry): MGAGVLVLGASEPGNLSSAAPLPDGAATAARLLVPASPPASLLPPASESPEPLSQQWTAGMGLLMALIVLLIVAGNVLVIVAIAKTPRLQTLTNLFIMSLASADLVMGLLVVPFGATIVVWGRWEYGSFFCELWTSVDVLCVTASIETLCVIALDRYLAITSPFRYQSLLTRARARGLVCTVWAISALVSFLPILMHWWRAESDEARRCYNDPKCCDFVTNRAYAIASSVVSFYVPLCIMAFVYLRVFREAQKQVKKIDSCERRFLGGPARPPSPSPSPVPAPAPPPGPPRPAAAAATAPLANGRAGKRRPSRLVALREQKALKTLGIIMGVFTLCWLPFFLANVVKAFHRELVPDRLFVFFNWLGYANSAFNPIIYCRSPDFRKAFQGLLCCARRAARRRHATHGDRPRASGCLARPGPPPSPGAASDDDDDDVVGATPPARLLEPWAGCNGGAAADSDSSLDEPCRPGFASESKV
# Chain of Beta-3 adrenergic receptor (Canis lupus familiaris, UniProt O02662) (O02662 whole entry): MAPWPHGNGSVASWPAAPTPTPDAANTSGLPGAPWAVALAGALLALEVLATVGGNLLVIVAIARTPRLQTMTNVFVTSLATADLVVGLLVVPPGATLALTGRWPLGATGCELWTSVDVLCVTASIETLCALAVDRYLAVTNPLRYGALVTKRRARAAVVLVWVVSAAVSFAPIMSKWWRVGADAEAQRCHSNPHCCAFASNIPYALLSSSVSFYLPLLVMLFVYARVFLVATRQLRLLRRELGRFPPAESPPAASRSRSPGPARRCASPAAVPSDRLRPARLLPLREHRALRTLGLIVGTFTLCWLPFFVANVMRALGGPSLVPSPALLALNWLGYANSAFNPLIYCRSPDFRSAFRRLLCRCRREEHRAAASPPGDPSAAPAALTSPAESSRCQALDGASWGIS
Structure (SMILES),Cmax [6] [ng/mL],half-life [7] [h],AUC(0-t) at 24 h [9] [ng·h/mL],bioavailability [10] [%],clearance [17] [mL/min/kg],EC50 [18] [nM],EC50 ([19]; read-out: EC50) [nM],further results
CC(C)Cc1cc(-c2ccc(CCNC[C@H](O)c3ccccc3)cc2)ccc1C(=O)O,–,–,–,–,–,–,–,EC50 ([1]; read-out: EC50): 8.7 nM; EC50 (Canis familiaris [2]): 18.7 nM; ED50 (Canis familiaris [2]): 0.0459 mg/kg; EC50 ([3]; read-out: EC50): 2.2 nM; fraction unbound [4]: 0.14
CC(C)Sc1cc(-c2ccc(CCNC[C@H](O)c3ccccc3)cc2)ccc1C(=O)O,–,–,–,–,–,–,–,EC50 ([1]; read-out: EC50): 11 nM; EC50 (Canis familiaris [2]): 11.2 nM; ED50 (Canis familiaris [2]): 0.047 mg/kg; EC50 ([3]; read-out: EC50): 1.2 nM
CC(C)Oc1cc(-c2ccc(CCNC[C@H](O)c3ccccc3)cc2)ccc1C(=O)O,–,–,–,–,–,–,–,EC50 ([1]; read-out: EC50): 6.8 nM; inhibition in vivo at 0.01 mg/kg (Canis familiaris [5]): > 70%
CS(=O)(=O)NC(=O)c1ccc(-c2ccc(CCNC[C@H](O)c3cnccc3N)cc2)cc1OC1CCCCC1.Cl.Cl,2.5,6.7,26.7,54,34.9,–,–,Cmax [8]: 3.3 ng/mL; ED50 (Canis familiaris [2]): 0.0143 mg/kg; clearance [11]: 52 mL/min/kg; bioavailability [12]: 0%; AUC(0-t) at 24 h [13]: 6.3 ng·h/mL; bioavailability [14]: 5%; half-life [15]: 1.7 h; clearance [16]: 36.4 mL/min/kg
CS(=O)(=O)NC(=O)c1ccc(-c2ccc(CCNC[C@H](O)c3ccc(N)cc3)cc2)cc1OC1CCCCC1.Cl.Cl,17.5,5.7,212,68,5,> 1000,0.5,EC50 ([19]; read-out: pEC50 (converted)): 0.0631 nM
CS(=O)(=O)NC(=O)c1ccc(-c2ccc(CCNC[C@H](O)c3cccnc3)cc2)cc1NC1CCCCC1.Cl.Cl.Cl,10.3,1.3,28.4,21,12.4,> 1000,0.062,EC50 [20]: > 10000 nM
CS(=O)(=O)NC(=O)c1ccc(-c2ccc(CCNC[C@H](O)c3ccccc3)cc2)cc1NC1CCCCC1.Cl.Cl,3.2,3.9,33.5,22,9.9,900,0.14,–
CC(C)Oc1cc(-c2ccc(CCNC[C@H](O)c3cccnc3)cc2)ccc1C(=O)O,–,–,–,–,–,–,–,EC50 ([1]; read-out: pEC50 (converted)): 7.94 nM; Ratio (Canis familiaris [21]): 0.65; EC50 [20]: > 10000 nM; EC50 ([3]; read-out: pEC50 (converted)): 10 nM; EC50 ([19]; read-out: pEC50 (converted)): 1.58 nM
CS(=O)(=O)NC(=O)c1ccc(-c2ccc(CCNC[C@H](O)c3ccccc3)cc2)cc1OC1CCCC1,–,–,–,–,–,750,0.62,–

# Now from value to compound, other results behind:
Cmax [6] [ng/mL],half-life [7] [h],AUC(0-t) at 24 h [9] [ng·h/mL],bioavailability [10] [%],clearance [17] [mL/min/kg],EC50 [18] [nM],EC50 ([19]; read-out: EC50) [nM],Structure (SMILES),further results
70.3,4.4,756,98,2.2,> 1000,0.6,CS(=O)(=O)NC(=O)c1ccc(-c2ccc(CCNC[C@H](O)c3ccccc3)cc2)cc1Oc1ccccc1.Cl,inhibition in vivo at 0.01 mg/kg (Canis familiaris [5]): 35%; EC50 ([3]; read-out: EC50): 2.9 nM
–,–,–,–,–,130,1,CC(C)Oc1cc(-c2ccc(CCNC[C@H](O)c3cccnc3)cc2)ccc1C(=O)NS(C)(=O)=O,–
24.9,3.5,210,67,5.3,> 1000,0.46,CC(C)Cc1cc(-c2ccc(CCNC[C@H](O)c3ccccc3)cc2)ccc1C(=O)NS(C)(=O)=O.Cl,Cmax [8]: 6.4 ng/mL; EC50 ([1]; read-out: EC50): 2.6 nM; EC50 (Canis familiaris [2]): 14.2 nM; ED50 (Canis familiaris [2]): 0.0247 mg/kg; EC50 [20]: > 10000 nM; inhibition in vivo at 0.01 mg/kg (Canis familiaris [5]): > 70%; EC50 ([3]; read-out: EC50): 0.88 nM; AUC(0-t) at 24 h [13]: 64.8 ng·h/mL; bioavailability [14]: 40%; fraction unbound [4]: 0.08; half-life [15]: 2.5 h; clearance [16]: 35.2 mL/min/kg
–,–,–,–,–,730,18,COc1cc(-c2ccc(CCNC[C@H](O)c3ccccc3)cc2)ccc1C(=O)NS(C)(=O)=O,–
–,–,–,–,–,160,2.8,CCCCCOc1cc(-c2ccc(CCNC[C@H](O)c3ccccc3)cc2)ccc1C(=O)NS(C)(=O)=O,–
